Test results as given in patent publication US10980768B2, “Composition containing carboplatin and use” (SYN-NAT PRODUCTS ENTERPRISE LLC, priority 2015, dated 2021).
Where two headings read alike, the source gives them in different places.

Key:
HL-60 cells = assay: Cell viability (MTS) assay in HL-60 cells, leukemia study; format: cell-based; conditions: HL-60 human promyelocytic leukemia cells, OD490 cell viability
K562 cells = assay: Cell viability (MTS) assay in K562 cells, leukemia study; format: cell-based, human; conditions: for toxicity: K562 cells, result in words; for IC50: K562 human myelogenous leukemia cells, OD490 cell viability
HEK293 cells [1] = assay: Cell viability (MTS) assay in HEK293 cells, leukemia study; conditions: for IC50: Homo sapiens, HEK293; for toxicity: HEK293 cells, leukemia study, result in words
HL-7002 cells [2] = conditions: leukemia study; for IC50: HL-7002 human fetal hepatic cells
Description: After comparison of OD490 values of the tested agents and the control agents, an index of relative repression rate of cell proliferation was obtained. The IC50 value was calculated by using the SPSS16.0 software.
The cells were cultured in RPMI+5% Fetal Bovine Serum (FBS).
Cells treated with the solvents were used as negative controls, and carboplatin, etiposide and MTX were used as the positive controls. The cells were monitored daily, and the cell viability was evaluated with the Promega CellTiter 96 AQueous One Solution Cell Proliferation Assay (Promega, Madison, Wis., USA) according to the manufacture manuals. The cell viability was monitored at OD490 reading in a bio-spectrometer (Perkin Elmer, Walthan, Mass., USA).
Data analysis: The OD490 reading data were collected hourly from 1 h to 4 h after the addition of lysis buffer. The index of cell growth repression ratio was obtained by comparing the OD490 data of treatment to the negative control. The drug response rate IC50 was calculated with the SPSS 16.0 software.

A498 cells = assay: Cell viability (MTS) assay in A498 cells, renal adenocarcinoma study; format: cell-based; conditions: A498 renal carcinoma cells, OD490 cell viability
Source text: (§1) Cell culture: A498 and ACHN cells were purchased from Tongbai Bio (Shanghai, China).

ACHN cells = assay: Cell viability (MTS) assay in ACHN cells, renal adenocarcinoma study; format: cell-based; conditions: ACHN renal carcinoma cells, OD490 cell viability
Source text: as §1

HEK293 cells [3] = assay: Cell viability (MTS) assay in HEK293 cells, renal adenocarcinoma study; format: cell-based, human; conditions: HEK293 normal embryonic kidney cells
HL-7002 cells [4] = assay: Cell viability (MTS) assay in HL-7002 cells, renal adenocarcinoma study
melanoma = assay: Case of a melanoma patient with multiple metastases in the brain and adrenal gland treated with DCP solution; format: in vivo, human
Source text: The following case summarizes DCP's pharmaceutical use on a melanoma patient with multiple metastases in the brain and adrenal grand. A metastatic tumor mass firstly was detected at the right frontal and parietal lobe of a patient's brain by MRI, and was removed by surgery in one month later. However, a new tumor mass with edema around it was detected at the left of parietal lobe. The tumor grew bigger, and the edema around the tumor became worse about two months after the new tumor was detected. The patient was treated with DCP solution (150 mg of DCP in 250 mL aqueous solution one time for every three days) for about three weeks.
The left lateral ventricle was compressed. The sign of removed tumors could be distinguished at the right frontal and parietal lobe, and the postoperative repair was found in the right frontal parietal bone. The midline structure shifted to the right side.
After treatment with DCP solution for about three weeks, the patient was examined (FIG. 10). […] The tumors at the right frontal and parietal lobe were removed, and the midline structure was normal.

[5] = HL-7002 normal hepatocytes, renal adenocarcinoma study
[6] = after DCP solution for about three weeks
[7] = melanoma brain metastasis, 150 mg DCP in 250 mL every three days for about three weeks

Molecule	IC50 (HL-60 cells) [µM]	toxicity (K562 cells)	IC50 (HEK293 cells [1]) [µM]	IC50 (HL-7002 cells [2]) [µM]	IC50 (K562 cells) [µM]	toxicity (HEK293 cells [1])	IC50 (A498 cells) [µM]	IC50 (ACHN cells) [µM]	IC50 (HEK293 cells [3]) [µM]	IC50 (HL-7002 cells [4]; [5]) [µM]	further results
COc1cc([C@@H]2c3cc4c(cc3[C@@H](O[C@@H]3O[C@@H]5CO[C@@H](C)O[C@H]5[C@H](O)[C@H]3O)[C@H]3COC(=O)[C@H]23)OCO4)cc(OC)c1O [etoposide]	15.3	did not show any toxicity	359	512							
N.N.O=C([O-])C1(C(=O)[O-])CCC1.[Pt+2] [carboplatin]	17.3			503	1210	no toxicity	18.4	11	410	1410	
CN(Cc1cnc2nc(N)nc(N)c2n1)c1ccc(C(=O)N[C@@H](CCC(=O)O)C(=O)O)cc1 [MTX, Methotrexate]	15.3	did not show any toxicity	17.6								toxicity (HL-7002 cells [2]; HL-7002 cells, result in words): little toxicity
O=c1[nH]cc(F)c(=O)[nH]1 [5-FU, fluorouracil]											IC50 (A498 cells; Homo sapiens): 18.2 µM; IC50 (ACHN cells; Homo sapiens): 6.45 µM; IC50 (HEK293 cells [3]; Homo sapiens): 45 µM; IC50 (HL-7002 cells [4]; Homo sapiens, Hepatocyte): 356 µM
dicycloplatin [DCP]	18.6			503	812	no toxicity	20.9	15.4	463	1470	edema around the tumor, post-chemo CT (melanoma; [6]): significantly relieved; tumor mass at the left of parietal lobe, post-chemo CT vs pre-chemo CT (melanoma; [6]): shrunk; edema around the tumor by MRI (melanoma; [7]): relieved; tumor mass by MRI (melanoma; [7]): shrunk; cellular toxicity lower than 5-FU (HL-7002 cells [4]; HL-7002 and HEK293 normal cells, compared to 5-FU): 4 fold
